Measurements from ChEMBL document CHEMBL1201862, “PubChem BioAssay data set” (2004).
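Test compounds were applied to cells in 96-well plates for 48 hours at 5 doses. Here, GI50 denotes the concentration required for 50% inhibition of growth.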 Calls of active or inactive are those of the source. Cut-off read from the data, not from the text of the source: active = GI50 up to about 1.1 µM and inactive = higher.

Experiments:
Experiment in all cases: DTP human tumour cell line panel, 48 h
[1] = test system: SK-MEL-5
[2] = test system: OVCAR-8
[3] = test system: HL-60
[4] = test system: SF-268
[5] = test system: SR
[6] = test system: SW-620
[7] = test system: HCC 2998
[8] = test system: SF-539
[9] = test system: HOP-92
[10] = test system: OVCAR-3
[11] = test system: MCF7
[12] = test system: NCI/ADR-RES
[13] = test system: T47D
[14] = test system: U-251
[15] = test system: SNB-75
[16] = test system: MDA-MB-435
[17] = test system: HT-29
[18] = test system: Hs-578T
[19] = test system: SK-OV-3
[20] = test system: SF-295

Structure (SMILES)	GI50 [1]	GI50 [2]	GI50 [3]	GI50 [4]	GI50 [5]	GI50 [6]	GI50 [7]	GI50 [8]	GI50 [9]	GI50 [10]	GI50 [11]	GI50 [12]	GI50 [13]	GI50 [14]	GI50 [15]	GI50 [16]	GI50 [17]	GI50 [18]	GI50 [19]	GI50 [20]
COC(=O)c1cccc(C)c1C1CN=NC12Cc1c(ccc(C)c1C)C2=O (stereo not given)	0.102 µM (active)	30.7 µM (inactive)	12.6 µM (inactive)	61.8 µM (inactive)	21.3 µM (inactive)	29.5 µM (inactive)	40.4 µM (inactive)	> 100 µM (inactive)	38.4 µM (inactive)	42.2 µM (inactive)	32.5 µM (inactive)	33.1 µM (inactive)	5.4 µM (inactive)	56 µM (inactive)	51.5 µM (inactive)	35.2 µM (inactive)	25.8 µM (inactive)	27.4 µM (inactive)		
O=c1c(-c2c(-c3ccccc3)oc3ccc(Cl)cc3c2=O)c(-c2ccccc2)oc2ccc(Cl)cc12	> 100 µM (inactive)	> 74.1 µM (inactive)	0.0302 µM (active)	> 49.9 µM (inactive)	> 100 µM (inactive)	> 100 µM (inactive)	> 100 µM (inactive)	> 100 µM (inactive)	> 59.7 µM (inactive)	> 100 µM (inactive)	> 100 µM (inactive)	> 100 µM (inactive)	> 100 µM (inactive)	> 100 µM (inactive)	> 44.1 µM (inactive)	> 100 µM (inactive)	> 100 µM (inactive)	> 49.8 µM (inactive)	> 51.4 µM (inactive)	> 51.8 µM (inactive)
O=C1CCCC/C1=C(\Br)I	17.9 µM (inactive)	14.5 µM (inactive)	2.12 µM (inactive)	9.62 µM (inactive)	2.67 µM (inactive)	3.39 µM (inactive)	4.95 µM (inactive)	18.8 µM (inactive)	17.9 µM (inactive)	18 µM (inactive)	12.8 µM (inactive)	19 µM (inactive)	7 µM (inactive)	18 µM (inactive)	16.9 µM (inactive)	15.1 µM (inactive)	12.9 µM (inactive)	35.4 µM (inactive)	22 µM (inactive)	17.5 µM (inactive)
COC(=O)[C@@H](COC(=O)/C=C/c1ccc(OC(C)=O)c(OC(C)=O)c1)NC(=O)/C=C/c1ccc(OC(C)=O)c(OC(C)=O)c1	13.4 µM (inactive)	22.5 µM (inactive)	18.7 µM (inactive)	29.9 µM (inactive)	8.49 µM (inactive)	33.3 µM (inactive)	21.8 µM (inactive)	19 µM (inactive)	32.7 µM (inactive)	20.5 µM (inactive)	33.9 µM (inactive)	51.5 µM (inactive)	11.1 µM (inactive)	33.7 µM (inactive)	20.9 µM (inactive)	29.5 µM (inactive)	22.4 µM (inactive)	25.2 µM (inactive)	55.5 µM (inactive)	
CCOC(=O)/C(C#N)=C1\c2c([nH]c(=S)[nH]c2=O)Oc2ccc3ccccc3c21	14 µM (inactive)	54.7 µM (inactive)	2.64 µM (inactive)	24.3 µM (inactive)	49.1 µM (inactive)	4.06 µM (inactive)	59.4 µM (inactive)		43.5 µM (inactive)	23.7 µM (inactive)	30.1 µM (inactive)	59.3 µM (inactive)	34.7 µM (inactive)	23.7 µM (inactive)	23.3 µM (inactive)	43.2 µM (inactive)	12.4 µM (inactive)	76.6 µM (inactive)	44.9 µM (inactive)	> 100 µM (inactive)
Cc1ccc(C2=C(Cl)C(=O)C(c3ccc(C)cc3)=C(Cl)C2=O)cc1	> 100 µM (inactive)	> 100 µM (inactive)	> 100 µM (inactive)	> 100 µM (inactive)	> 100 µM (inactive)	> 100 µM (inactive)		> 100 µM (inactive)	> 100 µM (inactive)	> 100 µM (inactive)	> 100 µM (inactive)	> 100 µM (inactive)	> 100 µM (inactive)	> 100 µM (inactive)	> 100 µM (inactive)	> 100 µM (inactive)	> 100 µM (inactive)	> 100 µM (inactive)	> 100 µM (inactive)	> 100 µM (inactive)
COC(=O)C(Cc1ccc2c(c1)CCC2)Cc1ccc2c(c1)CCC2	25.9 µM (inactive)	53.6 µM (inactive)	23 µM (inactive)	48.6 µM (inactive)	57 µM (inactive)	> 100 µM (inactive)		> 100 µM (inactive)	31.3 µM (inactive)	85.1 µM (inactive)	31.5 µM (inactive)	> 100 µM (inactive)	20.9 µM (inactive)	51.9 µM (inactive)	71.3 µM (inactive)	48.8 µM (inactive)	29.4 µM (inactive)	> 100 µM (inactive)	> 100 µM (inactive)	36.6 µM (inactive)
[N-]=[N+]=Nc1cc(=O)[nH]nc1-c1ccccc1		> 100 µM (inactive)	> 100 µM (inactive)	> 100 µM (inactive)	> 100 µM (inactive)	> 100 µM (inactive)	> 100 µM (inactive)	> 100 µM (inactive)	> 100 µM (inactive)	> 100 µM (inactive)	> 100 µM (inactive)	> 100 µM (inactive)	> 100 µM (inactive)	> 100 µM (inactive)	61.4 µM (inactive)	> 100 µM (inactive)	> 100 µM (inactive)	> 100 µM (inactive)	> 100 µM (inactive)	> 100 µM (inactive)
O=C1CC(NC(=O)C(F)(F)F)c2c1csc2Br (stereo not given)	64.9 µM (inactive)	> 100 µM (inactive)	53.1 µM (inactive)	0.678 µM (active)	36.9 µM (inactive)	31.8 µM (inactive)	> 100 µM (inactive)	74.1 µM (inactive)	35 µM (inactive)	2.45 µM (inactive)	2.94 µM (inactive)	> 100 µM (inactive)	3.4 µM (inactive)	> 100 µM (inactive)		56.5 µM (inactive)	> 100 µM (inactive)	> 100 µM (inactive)	> 100 µM (inactive)	5.77 µM (inactive)
O=C(O)CCC(C(=O)O)N1C(=O)c2ccccc2C1=O (stereo not given)	> 100 µM (inactive)	> 100 µM (inactive)	> 100 µM (inactive)	> 100 µM (inactive)	> 100 µM (inactive)	> 100 µM (inactive)	> 100 µM (inactive)		> 100 µM (inactive)	> 100 µM (inactive)	> 100 µM (inactive)	> 100 µM (inactive)	> 100 µM (inactive)	> 100 µM (inactive)	> 100 µM (inactive)	> 100 µM (inactive)	> 100 µM (inactive)	> 100 µM (inactive)	> 100 µM (inactive)	> 100 µM (inactive)
COS(C)(=O)=O [METHANESULFONIC ACID METHYL ESTER]		> 2 µM (inactive)	> 2 µM (inactive)	> 2 µM (inactive)	> 2 µM (inactive)	> 2 µM (inactive)	> 2 µM (inactive)	> 2 µM (inactive)	> 2 µM (inactive)	> 2 µM (inactive)	> 2 µM (inactive)	> 2 µM (inactive)	> 2 µM (inactive)	> 2 µM (inactive)	> 2 µM (inactive)	> 2 µM (inactive)	> 2 µM (inactive)	> 2 µM (inactive)	> 2 µM (inactive)	
Oc1c(C2=NNC(c3cccs3)C2)ccc2ccccc12 (stereo not given)	23.2 µM (inactive)	27.5 µM (inactive)		10.9 µM (inactive)	8.89 µM (inactive)	24.5 µM (inactive)	14.8 µM (inactive)	20.1 µM (inactive)	18.2 µM (inactive)	18 µM (inactive)	15.6 µM (inactive)	21.9 µM (inactive)	4.42 µM (inactive)	25 µM (inactive)	21.3 µM (inactive)	18.3 µM (inactive)	17.9 µM (inactive)	17.1 µM (inactive)	27.4 µM (inactive)	18.2 µM (inactive)
CSC1=NN=C(SC)NN1	0.182 µM (active)	0.285 µM (active)	0.0369 µM (active)	0.189 µM (active)	0.0204 µM (active)	0.17 µM (active)	0.378 µM (active)	0.205 µM (active)	0.173 µM (active)	0.185 µM (active)	0.201 µM (active)	0.3 µM (active)	0.142 µM (active)	0.18 µM (active)		0.182 µM (active)	0.173 µM (active)	0.161 µM (active)	0.186 µM (active)	0.198 µM (active)
COc1ccc(N2C(=O)C3c4[nH]c5cccc(Cl)c5c4C4CCC(C(C)(C)C)CC4C3C2=O)cc1 (stereo not given)	> 100 µM (inactive)	84.3 µM (inactive)		50.6 µM (inactive)	8.47 µM (inactive)	> 100 µM (inactive)	> 100 µM (inactive)	64.7 µM (inactive)	83.2 µM (inactive)	> 100 µM (inactive)	> 100 µM (inactive)	> 100 µM (inactive)	> 100 µM (inactive)	39.2 µM (inactive)	19.1 µM (inactive)	> 100 µM (inactive)	> 100 µM (inactive)	21.9 µM (inactive)	64.9 µM (inactive)	47.2 µM (inactive)
COc1ccc(C2SCC(=O)N2c2ccc(-c3ccc(-n4c(-c5ccccc5)nc5ccccc5c4=O)cc3)cc2)cc1 (stereo not given)	26.9 µM (inactive)	78.7 µM (inactive)	54.3 µM (inactive)	> 100 µM (inactive)	19.5 µM (inactive)	94.4 µM (inactive)	30.1 µM (inactive)	74.8 µM (inactive)	15.7 µM (inactive)	17.5 µM (inactive)	26.1 µM (inactive)	96.2 µM (inactive)	21 µM (inactive)	48.5 µM (inactive)		49.7 µM (inactive)	12.7 µM (inactive)	25.9 µM (inactive)	> 100 µM (inactive)	47 µM (inactive)
